From PMC4109836, “Analysis of the co-operative interaction between the allosterically regulated proteins GK and GKRP using tryptophan fluorescence” (Biochemical Journal, 2014)

Key:
[1] = system: subjects with T2D; design: method as in PMID 21994424; settings: cited from earlier work
[2] = Structural stability from urea denaturation curves (TF); format: physicochemical, human; settings: buffer pH 7.2, 20°C; ±0.05

CCS(=O)(=O)c1ccc(Oc2cc(O[C@@H](C)CO)cc(C(=O)Nc3ccn(C)n3)c2)cn1 [MK0941]
clinical effect, higher doses ([1]; higher doses of the drug): fast-onset transient effects associated with an increase in blood lipids and cardiovascular side effects | clinical effect, low dose ([1]; low dose of the drug): slow-onset long-lasting beneficial effect

B1: GKRP-P446L: recombinant human GKRP variant P446L (protein)
chain: MPGTKRFQHVIETPEPGKWELSGYEAAVPITEKSNPLTQDLDKADAENIVRLLGQCDAEIFQEEGQALSTYQRLYSESILTTMVQVAGKVQEVLKEPDGGLVVLSGGGTSGRMAFLMSVSFNQLMKGLGQKPLYTYLIAGGDRSVVASREGTEDSALHGIEELKKVAAGKKRVIVIGISVGLSAPFVAGQMDCCMNNTAVFLPVLVGFNPVSMARNDPIEDWSSTFRQVAERMQKMQEKQKAFVLNPAIGPEGLSGSSRMKGGSATKILLETLLLAAHKTVDQGIAASQRCLLEILRTFERAHQVTYSQSPKIATLMKSVSTSLEKKGHVYLVGWQTLGIIAIMDGVECIHTFGADFRDVRGFLIGDHSDMFNQKAELTNQGPQFTFSQEDFLTSILPSLTEIDTVVFIFTLDDNLTEVQTIVEQVKEKTNHIQALAHSTVGQTLLIPLKKLFPSIISITWPLLFFEYEGNFIQKFQRELSTKWVLNTVSTGAHVLLGKILQNHMLDLRISNSKLFWRALAMLQRFSGQSKARCIESLLRAIHFPQPLSDDIRAAPISCHVQVAHEKEQVIPIALLSLLFRCSITEAQAHLAAAPSVCEAVRSALAGPGQKRTADPLEILEPDVQ
modifications: left off: FLAG, end not stated, state not stated
ΔG(H2O) from urea denaturation curves [2]: 1.55 kcal/mol
